Values quoted from earlier work in patent publication US20130344087A1, “COMBINATIONS OF ANTI-S1P ANTIBODIES AND SHPINGOLIPID PATHWAY INHIBITORS” (priority 2010, published 2013).
Values belong to the compound of their own block, whether it stands above or below them.

Tests used:
ceramide synthase 2 = biological target: T1, ceramide synthase 2 (Homo sapiens, UniProt Q96G23); settings: human pulmonary artery endothelial cells
T1 construct: endogenous in cells; host or cells: human pulmonary artery endothelial cells
T1 sequence (Q96G23 1-380): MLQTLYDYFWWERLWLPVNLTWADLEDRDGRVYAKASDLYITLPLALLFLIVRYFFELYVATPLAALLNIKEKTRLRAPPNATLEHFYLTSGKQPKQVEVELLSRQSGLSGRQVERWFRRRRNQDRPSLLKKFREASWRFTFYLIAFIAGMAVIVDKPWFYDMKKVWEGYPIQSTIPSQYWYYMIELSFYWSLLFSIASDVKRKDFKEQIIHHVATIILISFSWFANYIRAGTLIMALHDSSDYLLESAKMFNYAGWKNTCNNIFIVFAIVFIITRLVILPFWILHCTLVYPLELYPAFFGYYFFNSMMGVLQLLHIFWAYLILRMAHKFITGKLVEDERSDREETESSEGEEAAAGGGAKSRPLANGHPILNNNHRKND

ERK2 = ERK2 (Homo sapiens, UniProt P28482); settings: at concentrations up to 60 μM
PI3-kinase = settings: at concentrations up to 60 μM
[1] = tested on: human cancer cell lines (T-24, MCF-7, NCl/ADR, and MCF-7NP); settings: range across cell lines, read-out: IC50, inhibition of proliferation
PKCα = PKCα (Homo sapiens, UniProt P17252); settings: at concentrations up to 60 μM
[2] = tested on: human leukemia Jurkat cells
SPHK 2 = biological target: T2, SPHK 2 (Homo sapiens, UniProt Q9NRA0)
T2 sequence (Q9NRA0 1-654): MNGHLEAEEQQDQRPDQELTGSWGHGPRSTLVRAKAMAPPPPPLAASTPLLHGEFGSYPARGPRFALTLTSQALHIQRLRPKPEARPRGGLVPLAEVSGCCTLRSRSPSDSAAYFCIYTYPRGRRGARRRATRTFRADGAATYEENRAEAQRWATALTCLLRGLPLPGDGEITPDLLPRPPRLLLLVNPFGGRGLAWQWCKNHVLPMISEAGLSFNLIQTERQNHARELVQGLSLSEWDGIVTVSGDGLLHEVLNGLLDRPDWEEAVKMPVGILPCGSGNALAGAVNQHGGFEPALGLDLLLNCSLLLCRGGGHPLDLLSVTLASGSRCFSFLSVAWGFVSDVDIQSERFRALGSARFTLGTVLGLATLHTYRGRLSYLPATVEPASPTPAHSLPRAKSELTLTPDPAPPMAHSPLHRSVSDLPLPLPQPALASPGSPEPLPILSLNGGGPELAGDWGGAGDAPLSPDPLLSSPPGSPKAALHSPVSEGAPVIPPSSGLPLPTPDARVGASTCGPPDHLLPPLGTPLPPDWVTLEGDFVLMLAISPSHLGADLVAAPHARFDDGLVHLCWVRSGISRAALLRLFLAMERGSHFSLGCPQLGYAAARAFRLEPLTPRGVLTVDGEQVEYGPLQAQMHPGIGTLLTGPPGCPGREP

[3] = tested on: human leukemia U937 cells
AML xenograft tumors = settings: in vivo
[4] = tested on: normal peripheral blood mononuclear leukocytes
[5] = tested on: leukemic blasts isolated from patients with acute myelogenous leukemia; settings: blasts from AML patients

Chain of ERK2 (P28482 whole entry, species assumed): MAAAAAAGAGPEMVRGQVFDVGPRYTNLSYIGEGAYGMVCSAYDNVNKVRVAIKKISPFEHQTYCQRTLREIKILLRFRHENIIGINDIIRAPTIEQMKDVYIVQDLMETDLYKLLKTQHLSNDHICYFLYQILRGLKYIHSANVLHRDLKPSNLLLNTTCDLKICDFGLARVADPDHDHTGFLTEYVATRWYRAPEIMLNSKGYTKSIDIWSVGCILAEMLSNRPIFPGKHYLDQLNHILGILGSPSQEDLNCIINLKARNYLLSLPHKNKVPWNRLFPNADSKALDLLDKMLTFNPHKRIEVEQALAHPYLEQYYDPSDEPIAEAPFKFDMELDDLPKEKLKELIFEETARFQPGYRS

SMILES: CCCCCCCCCCCCCCC[C@H](O)[C@@H](N)CO [safingol, L-threo-dihydrosphingosine]
cytotoxicity to leukemia cells (leukemia cells): cytotoxic

cellular levels of dihydroceramides, ceramides, sphingosine, and S1P (ceramide synthase 2): decreased cellular levels
inhibition of ceramide synthase 2 (ceramide synthase 2): inhibit ceramide synthase 2
levels of dihydrosphingosine and dihydrosphingosine 1-phosphate (DHS1P) (ceramide synthase 2; mediated by SPHK1 activity): increased levels
SMILES: CCCCCCCCc1ccc(CCC(N)(CO)CO)cc1.Cl [FTY720, 2-amino-2[2-(4-octylphenyl)ethyl]propane-1,3-diol hydrochloride]

SMILES: Oc1ccc(Nc2nc(-c3ccc(Cl)cc3)cs2)cc1 [SPHK I2, 4-[[4-(4-chlorophenyl)-2-thiazolyl]amino]-phenol]
inhibition of ERK2 (ERK2): no inhibition
inhibition of PI3-kinase (PI3-kinase): no inhibition
IC50 [1]: 0.9 to 4.6 µM
inhibition of PKCα (PKCα): no inhibition

SMILES: CCCCCc1ccc(/C=C/[C@H](O)[C@@H](CO)NC)cc1 [SK1-I, (2R,3S,4E)-N-methyl-5-(4′-pentylphenyl)-2-aminopent-4-ene-1,3-diol]
inhibition of PKC (PKC): does not inhibit
growth and survival of Jurkat cells [2]: decrease growth and survival
inhibition of SPHK 2 (SPHK 2): does not inhibit
growth and survival of U937 cells [3]: decrease growth and survival
growth of AML xenograft tumors (AML xenograft tumors): markedly reduces growth
effect on normal peripheral blood mononuclear leukocytes [4]: sparing
S1P levels (S1P and ceramide levels): decreases S1P levels
levels of proapoptotic precursor ceramide (S1P and ceramide levels): increases levels
induction of apoptosis in leukemic blasts [5]: potently induces apoptosis
